Measurements taken from patent US11891386B2, “Indole compounds and their use” (ARIAGEN, INC., priority 2017, dated 2024).

Tests used:
Assay type in all cases: in vitro ADME
[1] = Hepatocyte intrinsic clearance assay, human hepatocytes; conditions: male, cryopreserved pooled human hepatocytes; Human Hepatocytes, 1 μM test compound
Description: (§1) The liver is an important organ in the body for drug metabolism. This Example describes hepatocyte intrinsic clearance assays using both human and mouse hepatocytes to evaluate the metabolic stability of the indole compounds disclosed herein. The parameters measured include t1/2 (half-life), CLint (intrinsic clearance), and EH (hepatic extraction ratio).
(§2) Testosterone (Lot FE111011-01) was obtained from Cerilliant (Round Rock, TX). 7-hydroxycoumarin (Lot 11631ED) was obtained from Sigma Aldrich (St. Louis, MO). Cryopreserved human hepatocytes pooled from ten donor males (X008001), cryopreserved male IRC/CD-1 mouse hepatocytes (M005052), INVITROGRO HI Medium (incubation), and INVITROGRO HT Medium (thawing) were obtained from Bioreclamation IVT (Baltimore, MD). All solvents were obtained from commercial sources and used without further purification.
(§3) Each test compound was prepared as a 1 mM stock solution in DMSO. A 2 μM solution of test compound and positive controls were prepared in INVITROGRO HI Medium (incubation). These solutions were pre-warmed in a sterile incubator set to maintain 37° C., 5% CO2, and 98% humidity. Cryopreserved hepatocytes were prepared at a concentration of 2×10^6 living cells/mL in incubation media and pre-warmed in the incubator. The compound solutions and hepatocyte mixtures were then combined at a ratio of 1:1 (v:v). The final volume of the reaction mixture was 750 μL, containing 1 μM test compound (10 μM for 7-hydroxycoumarin) and […]. The reaction mixture was placed in the incubator on a plate shaker. After 0, 15, 30, 60, 90, and 120 minutes of incubation, 100 μL of reaction mixtures were removed from the incubation plate and mixed with 150 μL of ice-cold acetonitrile in a designated well of a 96-well crash plate. The 96-well crash plate was placed on ice for 15 min, and samples were centrifuged (3,600 RPM, 10 min, 4° C.) to precipitate protein. The supernatants were diluted 1:1 (v:v) with water containing 0.15 μM verapamil and/or 1 μM tolbutamide (internal standards for positive and negative modes, respectively) in a 96-well shallow injection plate. This plate was sealed for LC-MS analysis. All measurements were done in duplicate.
(§4) The residual compound remaining (% R) was determined from LC-MS peak areas by comparison to the zero time point. Metabolic half-life (t1/2) and intrinsic clearance (CLint) values were calculated from the slope of the plot of ln (% R) vs. time and the concentration of hepatocytes present in the incubation. Percent remaining at 60 minutes was calculated by plugging in the 60 minute value into the slope equation generated by the percent remaining time points.
(§5) In vivo hepatic clearance CLH was calculated using the well stirred liver model according to the following equation:
(§6) [formula] where QH is the total liver blood flow, fu is unbound fraction of the drug, and CL′int is defined as follows: CL′int=CLint×(10^6 cells/g of liver weight)×(g liver weight/kg of body weight). In the first approximation, used in this study, fu=1.
(§7) Hepatic extraction ratio EH was calculated using the following equation:
(§8) [formula] Corresponding physiological parameters used in calculations for all species are shown below in Table 5.

human hepatocytes = experiment: as above; conditions: for CLint (μL/min/10^6 ells) / EH (%) hepatic extraction ratio: Human Hepatocytes; for CLint (μL/min/10^6 ells): 1 μM test compound; for EH (%) hepatic extraction ratio: well stirred liver model, fu=1
Description: as §1, §2, §3, §4, §5, §6, §7, §8

[2] = Hepatocyte intrinsic clearance assay, mouse hepatocytes; conditions: male, IRC/CD-1, cryopreserved mouse hepatocytes; Mouse Hepatocytes, 1 μM test compound
Description: as §1, §2, §3, §4, §5, §6, §7, §8

mouse hepatocytes = experiment: as above; conditions: for CLint (μL/min/10^6 ells) / EH (%) hepatic extraction ratio: Mouse Hepatocytes; for CLint (μL/min/10^6 ells): 1 μM test compound; for EH (%) hepatic extraction ratio: well stirred liver model, fu=1
Description: as §1, §2, §3, §4, §5, §6, §7, §8

SMILES	half-life at 1 μM [1]	CLint (μL/min/10^6 ells) (human hepatocytes)	EH (%) hepatic extraction ratio (human hepatocytes)	half-life at 1 μM [2]	CLint (μL/min/10^6 ells) (mouse hepatocytes)	EH (%) hepatic extraction ratio (mouse hepatocytes)	EH lower as compared to ARI-002, in words (human hepatocytes; human hepatocytes)	times lower clearance as compared to ARI-002 (human hepatocytes; human hepatocytes)	EH lower as compared to ARI-002, in words (mouse hepatocytes; mouse hepatocytes)	times lower clearance as compared to ARI-002 (mouse hepatocytes; mouse hepatocytes)
CCC(=O)c1csc(C(=O)c2c[nH]c3cccc(F)c23)n1 [ARI-142, 1-(2-(4-fluoro-1H-indole-3-carbonyl)thiazol-4-yl)propan-1-one]	1.43 h	8.1 μL/min/10^6 ells	50%	1.1 h	11 μL/min/10^6 ells	38%				
CCC(=O)c1csc(C(=O)c2c[nH]c3cc(F)ccc23)n1 [ARI-143, 1-(2-(6-fluoro-1H-indole-3-carbonyl)thiazol-4-yl)propan-1-one]	2.57 h	4.5 μL/min/10^6 ells	36%	5.1 h	2.3 μL/min/10^6 ells	12%	two times	30 times	eight times lower	418 times
NCc1nnc(-c2csc(C(=O)c3c[nH]c4c(F)cccc34)n2)o1 [ARI-145, (4-(5-(aminomethyl)-1,3,4-oxadiazol-2-yl)thiazol-2-yl)(7-fluoro-1H-indol-3-yl)methanone]	2.83 h	4.1 μL/min/10^6 ells	33%	2.27 h	5.1 μL/min/10^6 ells	23%				
NCc1nc(-c2csc(C(=O)c3c[nH]c4c(F)cccc34)n2)no1 [ARI-146, (4-(5-(aminomethyl)-1,2,4-oxadiazol-3-yl)thiazol-2-yl)(7-fluoro-1H-indol-3-yl)methanone]	6.23 h	1.9 μL/min/10^6 ells	19%	1.67 h	6.9 μL/min/10^6 ells	29%				
Nc1nnc(-c2csc(C(=O)c3c[nH]c4ccc(F)cc34)n2)o1 [ARI-148, (4-(5-amino-1,3,4-oxadiazol-2-yl)thiazol-2-yl)(5-fluoro-1H-indol-3-yl)methanone]	4.7 h	2.5 μL/min/10^6 ells	23%	3.17 h	3.6 μL/min/10^6 ells	18%				
CCC(=O)c1csc(C(=O)c2c[nH]c3cc(F)c(F)cc23)n1 [ARI-149, 1-(2-(5,6-difluoro-1H-indole-3-carbonyl)thiazol-4-yl)propan-1-one]	2.2 h	5.3 μL/min/10^6 ells	39%	3.97 h	2.9 μL/min/10^6 ells	15%				
